Data set [1] concerns the target T1, farnesyl-protein transferase (FPTase) (Rattus norvegicus, UniProt Q02293+Q04631).
T1 construct: a cerebrum obtained from white rat; from tissue; host or cells: rat cerebrum (male Sprague-Dawley, 100-150 g), homogenate, partially purified on Q Sepharose Fast Flow
The data set can be described thus: Farnesyl-protein transferase inhibiting activity, scintillation proximity assay with 3H-FPP and biotin-lamin B peptide. Conditions: read-out: IC50 values for FPTase Inhibition. Type of data set: biochemical. The protocol: First, a cerebrum obtained from white rat(male Spraguo Dowley 100-150 g) was washed with physiological saline solution and homogenized. The homogenized solution was centrifuged and partially purified by using Q sepharose fast flow column to obtain farnesyl protein transferase(FPTase).
10 μl of a sample, 40 μl of FPTase obtained above, 10 μl of an assay buffer(50 mM Tris-HCl, pH 7.5, 25 mM MgCl2, 2 mM KCl, 5 mM DTT, 5 mM Na2 HPO4, 0.01% Triton X-100), 20 μl of diluted ^3 H-FPP and 20 μl of biotin-lamin B peptide were mixed together and the resulting mixture was reacted at room temperature for 30 minutes. 150 μl of SPA bead/stop reagent solution was added to the mixture and the enzymatic activity was determined by examining the extent of biotin lamin B peptide farneslyation, expressed by a unit of count per minute(CPM), with a liquid scintillation counter.

The subject of data set [2] is angiogenesis, chorioallantoic membrane (CAM). The data set can be described thus: Angiogenesis suppressing activity, chorioallantoic membrane (CAM) assay. The data set is classed as in vivo. Conditions: fertilized chicken egg, read-out: IC50 values for Angiogenesis Suppression. The protocol:
Angiogenesis was determined in accordance with the chorioallantoic membrane(CAM) assay method of Kusaka et al. described in Biochem. Biophy. Res. Comm., 174, 1070(1991) by using a fertilized chicken egg.
A fertilized chicken egg(Pulmuwon co., Korea) was incubated at 37°-38° C. and a humidity of more than 90%. Here, 0 day-embryo means that the fertilized egg had been storaged at 18° C. for no more than 3-4 days since laying.
The pointed end of the fertilized egg was scratched with a knife, laid horizontally, the scratched site was punctured with a 5 ml syringe and 2 ml of albumin was extracted from the fertilized egg. The puncture hole was then sealed with a glass-tape. The fertilized egg, laid such that the sealed hole is located at the bottom, was incubated under the same condition described above.
The other end of the fertilized egg where the air sac is located, i.e., the end opposite to the hole site was opened, a window having a diameter of 2-3 cm was installed therein, the window was sealed with a glass-tape, and the incubation was resumed.
At this time, a chorioalletoic membrane(CAM) of 2-5 mm diameter develop. A arteminolide sample was dissolved in distilled water or ethanol, 10 μl of the sample solution was dropped on quartered Thermanox coverslip(Nunc, Co.,) and dried in a clean bench. The sealing glass-tape was removed, the treated Thermanox coverslip obtained above was laid on the CAM and then sealed with a glass-tape. All tools used in the above procedure were pre-sterilized with 70% ethanol.
The sealing glass-tape was removed. 1 ml of Intralipose(fat emulsion, Green Cross co., Korea) was taken with syringe, removed an air bobble therefrom and injected into an area below the CAM.
Angiogenesis suppressing activity was then calculated in accordance with the following equation: [formula]

A short description of data set [3]: Solubility. Type of data set: physicochemical.
Where [4] appears, read: MeOH, acetone, chloroform, DMSO.

Like-named read-outs stand apart in the source and are kept apart here.

By IC50 is commonly meant the concentration that gives 50% inhibition. Turning to `C=C1C(=O)OC2C1CCC(C)(O)C13C=CC(C)(C21)C1(C3)C(=O)OC2C3C(C)=CC(=O)C3=C(C)CC(OC(=O)CC(C)C)C21` (stereo not drawn) [Arteminolide A], the figures for the IC50 in data set [1] and in data set [2] (listed as A) were 0.38 µM and 5.4 µM, respectively.

For the molecule `C=C1C(=O)OC2C1CCC(C)(O)C13C=CC(C)(C21)C1(C3)C(=O)OC2C3C(C)=CC(=O)C3=C(C)CC(OC(=O)C=C(C)C)C21` (stereo not drawn) [Arteminolide B], the 50% inhibitory concentration (IC50) in data set [1] turned out to be 0.4 µM; in data set [2] (Gallus gallus), 5.2 µM. The Solubility result in data set [3] (setting [4]) is on record as “soluble”; in data set [3] (hexane, H2O), “insoluble”.

As for `C=C1C(=O)OC2C1CCC(C)(O)C13C=CC(C)(C21)C1(C3)C(=O)OC2C3C(C)=CC(=O)C3=C(C)CC(OC(=O)/C(C)=C\C)C21` (stereo not drawn) [Arteminolide C], the figures for the IC50 in data set [1] (listed as C) and in data set [2] (listed as C) were 0.74 µM and 0.5 µM, respectively. The Solubility entry in data set [3] (setting [4]) is reported as “soluble”; in data set [3] (hexane, H2O) it was “insoluble”.

Turning to `C=C1C(=O)OC2C1CCC(C)(O)C13C=CC(C)(C21)C1(C3)C(=O)OC2C3C(C)=CC(=O)C3=C(C)CC(OC(=O)/C(C)=C/C)C21` (stereo not drawn) [Arteminolide D], the IC50 in data set [1] came out at 0.63 µM; in data set [2] (Gallus gallus) it was 6.2 µM. In addition, the Solubility entry in data set [3] (setting [4]) was “soluble”; in data set [3] (hexane, H2O), “insoluble”.

Regarding `C=C1C(=O)OC2C1CCC(C)(O)C13C=CC(C)(C21)C1(C3)C(=O)OC2C3C(C)=CC(=O)C3=C(C)CC(OC(=O)/C(C)=C\C)C21` (stereo not drawn) [Arteminolide E], the 50% inhibitory concentration (IC50) in data set [1] (listed as E) was determined as 150 µM; in data set [2] (listed as E), 20 µM. The Solubility result in data set [3] (hexane, H2O) is reported as “insoluble”.

Consider `C=C1C(=O)OC2C1CCC(C)(O)C13C=CC(C)(C21)C1(C3)C(=O)OC2C3C(C)=CC(=O)C3=C(C)CC(OC(=O)CC(C)C)C21` (stereo not drawn) [Arteminolide F], for which the figures for the IC50 in data set [1] and in data set [2] (listed as F) were 160 µM and 24 µM, respectively. Besides, the Solubility entry in data set [3] (setting [4]) is listed as “soluble”; in data set [3] (hexane, H2O), “insoluble”.

The record behind these values is patent US5801254A, “Arteminolide derivatives and process for the manufacture thereof” (Korea Institute of Science and Technology, priority 1996, dated 1998).
